Measured values from article PMC3485666 (British Journal of Pharmacology, 2012).

Tests used:
human S1P1 receptors = human S1P1 receptors (Homo sapiens, UniProt P21453); experiment: GTPγ[35S] binding assay, human S1P1; format: biochemical
human S1P2 receptors = human S1P2 receptors (Homo sapiens, UniProt O95136); experiment: GTPγ[35S] binding assay, human S1P2; format: biochemical
human S1P3 receptors = human S1P3 receptors (Homo sapiens, UniProt Q99500); experiment: GTPγ[35S] binding assay, human S1P3; format: biochemical
human S1P4 receptors = target: T1, human S1P4 receptors (Homo sapiens, UniProt O95977); experiment: GTPγ[35S] binding assay, human S1P4; format: biochemical; conditions: read-out: %Emax (percentage of maximum stimulation)
T1 sequence (O95977 1-384): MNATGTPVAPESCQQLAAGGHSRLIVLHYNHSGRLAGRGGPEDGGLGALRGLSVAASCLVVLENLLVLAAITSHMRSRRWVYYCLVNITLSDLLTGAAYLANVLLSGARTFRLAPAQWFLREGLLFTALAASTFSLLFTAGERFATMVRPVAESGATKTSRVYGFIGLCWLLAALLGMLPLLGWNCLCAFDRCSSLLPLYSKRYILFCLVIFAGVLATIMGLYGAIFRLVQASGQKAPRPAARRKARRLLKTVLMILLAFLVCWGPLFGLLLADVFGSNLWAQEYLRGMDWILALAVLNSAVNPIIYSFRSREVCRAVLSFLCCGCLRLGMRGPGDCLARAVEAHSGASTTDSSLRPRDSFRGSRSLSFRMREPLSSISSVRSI

human S1P5 receptors = human S1P5 receptors (Homo sapiens, UniProt Q9H228); experiment: GTPγ[35S] binding assay, human S1P5; format: biochemical; conditions: read-out: %Emax (percentage of maximum stimulation), S1P5
[1] = target: myc-tagged human S1P1 receptors (Homo sapiens, UniProt P21453); experiment: Agonist-mediated internalization of S1P1 receptors in CHO cells by flow cytometry; format: cell-based; conditions: for Internalization of S1P1 receptors: 1 h incubation; for S1P1 receptors localized intracellularly: 1 h incubation followed by 3 h without compound
[2] = system: experimental autoimmune encephalomyelitis (EAE); experiment: Chronic EAE in DA rats, therapeutic dosing; format: in vivo; conditions: DA rat, days 11–34
[3] = system: peripheral absolute lymphocyte count (ALC); experiment: Phase I multiple-dose study: absolute lymphocyte count; format: in vivo, human; conditions: for Difference in mean %Emax of ALC, BAF312 versus placebo: 28 days, ANCOVA; for Average time to reach the lower limit of the normal ALC range after stopping dosing at steady state: predicted by pharmacokinetic/pharmacodynamic model
[4] = system: leukocyte subsets in whole blood; experiment: Phase I multiple-dose study: leukocyte subsets by flow cytometry; format: in vivo, human; conditions: 10 mg
heart rate = experiment: Phase I multiple-dose study: heart rate (Holter monitoring); format: in vivo, human; conditions: for Decrease in mean heart rate Emax0-24 versus placebo: day 1; for Mean heart rate reduction from time-matched day −1: 2 h post dose of day 1
healthy subjects = experiment: Phase I multiple-dose study: safety and tolerability; format: in vivo, human
clinical = conditions: both, human, in vivo, Complete wash-out (five effective half-lives) after treatment discontinuation
[5] = Phase I multiple-dose study: plasma pharmacokinetics; conditions: for AUCτ / concentration at 28 day / half-life at 28 day: geometric mean [%CV]; for Cmax at 28 day / Tmax / Tmax at 28 day / concentration at 28 day / half-life at 28 day / Cmax / half-life: both, human, plasma, oral; for half-life at 28 day: based on drug accumulation at steady-state
[6] = target: GIRK channels in human atrial myocytes (Homo sapiens, UniProt P21453); experiment: Electrophysiological recordings of GIRK current in human atrial myocytes; format: cell-based; conditions: S1P versus BAF312
S1P1 receptors = conditions: ref Piali et al., 2011; cited from earlier work

myc-tagged human S1P1 receptors, sequence (P21453 whole entry): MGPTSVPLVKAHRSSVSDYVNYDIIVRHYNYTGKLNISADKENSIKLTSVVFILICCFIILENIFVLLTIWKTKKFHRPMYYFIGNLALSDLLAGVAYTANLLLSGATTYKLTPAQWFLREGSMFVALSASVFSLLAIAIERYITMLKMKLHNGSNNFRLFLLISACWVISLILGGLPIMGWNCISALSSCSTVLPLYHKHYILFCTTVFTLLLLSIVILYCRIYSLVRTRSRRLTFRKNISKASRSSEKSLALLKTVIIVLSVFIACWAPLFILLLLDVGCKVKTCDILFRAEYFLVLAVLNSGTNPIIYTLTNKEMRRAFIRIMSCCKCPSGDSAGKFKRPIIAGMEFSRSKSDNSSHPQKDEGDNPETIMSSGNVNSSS
human S1P5 receptors, sequence (Q9H228 whole entry): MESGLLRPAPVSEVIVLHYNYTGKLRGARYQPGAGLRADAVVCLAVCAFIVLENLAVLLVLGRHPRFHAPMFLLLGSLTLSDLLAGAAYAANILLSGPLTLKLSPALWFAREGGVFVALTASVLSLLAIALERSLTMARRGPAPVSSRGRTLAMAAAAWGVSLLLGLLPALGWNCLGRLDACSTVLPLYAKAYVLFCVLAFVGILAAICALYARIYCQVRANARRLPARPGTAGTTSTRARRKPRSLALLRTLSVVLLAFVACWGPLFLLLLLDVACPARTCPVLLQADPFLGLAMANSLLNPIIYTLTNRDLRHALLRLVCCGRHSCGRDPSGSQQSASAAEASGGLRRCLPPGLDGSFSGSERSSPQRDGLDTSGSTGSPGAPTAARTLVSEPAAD
human S1P2 receptors, sequence (O95136 whole entry): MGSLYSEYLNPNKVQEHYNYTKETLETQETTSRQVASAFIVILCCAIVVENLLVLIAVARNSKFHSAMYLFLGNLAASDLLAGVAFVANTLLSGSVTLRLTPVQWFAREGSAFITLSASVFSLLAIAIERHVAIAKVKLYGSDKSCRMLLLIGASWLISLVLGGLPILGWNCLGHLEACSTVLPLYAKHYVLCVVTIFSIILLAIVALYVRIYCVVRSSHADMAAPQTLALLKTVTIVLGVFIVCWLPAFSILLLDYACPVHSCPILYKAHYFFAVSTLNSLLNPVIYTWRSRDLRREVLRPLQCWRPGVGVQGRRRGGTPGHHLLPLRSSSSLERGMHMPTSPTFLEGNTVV
GIRK channels in human atrial myocytes, sequence (P21453 whole entry): as the sequence (P21453 whole entry) above
GIRK channels in human atrial myocytes, sequence (P48549 whole entry partner): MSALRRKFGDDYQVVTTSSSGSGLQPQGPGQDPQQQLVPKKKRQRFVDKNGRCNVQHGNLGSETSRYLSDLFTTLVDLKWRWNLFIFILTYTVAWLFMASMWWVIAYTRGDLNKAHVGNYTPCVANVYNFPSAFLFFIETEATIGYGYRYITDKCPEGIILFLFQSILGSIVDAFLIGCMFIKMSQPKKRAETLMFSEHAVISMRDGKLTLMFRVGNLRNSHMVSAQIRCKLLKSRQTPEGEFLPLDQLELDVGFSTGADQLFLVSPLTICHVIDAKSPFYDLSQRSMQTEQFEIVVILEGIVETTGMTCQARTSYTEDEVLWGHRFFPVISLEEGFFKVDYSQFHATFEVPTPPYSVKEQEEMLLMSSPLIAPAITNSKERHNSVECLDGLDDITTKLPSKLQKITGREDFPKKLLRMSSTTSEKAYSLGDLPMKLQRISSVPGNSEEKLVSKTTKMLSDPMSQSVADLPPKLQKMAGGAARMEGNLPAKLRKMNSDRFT
GIRK channels in human atrial myocytes, sequence (P48544 whole entry partner): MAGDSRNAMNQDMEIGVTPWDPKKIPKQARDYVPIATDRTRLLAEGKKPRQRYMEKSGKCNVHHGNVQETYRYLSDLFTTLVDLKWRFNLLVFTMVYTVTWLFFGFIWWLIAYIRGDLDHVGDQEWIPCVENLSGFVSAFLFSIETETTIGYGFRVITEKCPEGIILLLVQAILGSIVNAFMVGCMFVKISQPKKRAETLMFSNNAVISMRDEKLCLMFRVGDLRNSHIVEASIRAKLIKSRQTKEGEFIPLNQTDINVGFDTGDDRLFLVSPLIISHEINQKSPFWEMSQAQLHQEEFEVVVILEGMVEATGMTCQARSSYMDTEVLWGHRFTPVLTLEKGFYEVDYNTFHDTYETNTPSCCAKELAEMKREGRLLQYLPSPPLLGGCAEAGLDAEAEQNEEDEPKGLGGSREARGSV
human S1P1 receptors, sequence (P21453 whole entry): as the sequence (P21453 whole entry) above
human S1P3 receptors, sequence (Q99500 whole entry): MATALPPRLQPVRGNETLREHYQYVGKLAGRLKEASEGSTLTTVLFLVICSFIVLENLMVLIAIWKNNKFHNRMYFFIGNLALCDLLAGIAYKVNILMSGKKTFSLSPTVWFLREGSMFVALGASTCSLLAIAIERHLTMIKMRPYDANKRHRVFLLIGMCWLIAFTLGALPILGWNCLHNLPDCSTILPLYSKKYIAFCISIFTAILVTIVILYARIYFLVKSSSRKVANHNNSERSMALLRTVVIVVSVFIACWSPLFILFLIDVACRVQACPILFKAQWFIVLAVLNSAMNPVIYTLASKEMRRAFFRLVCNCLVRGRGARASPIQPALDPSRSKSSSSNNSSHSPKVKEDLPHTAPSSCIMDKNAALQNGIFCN

CCc1cc(/C(C)=N/OCc2ccc(C3CCCCC3)c(C(F)(F)F)c2)ccc1CN1CC(C(=O)O)C1 [BAF312, 1-(4-{1-[(E)-4-cyclohexyl-3-trifluoromethylbenzyloxyimino]-ethyl}-2-ethylbenzyl)-azetidine-3-carboxylic acid]
EC50 (human S1P1 receptors): 0.39 ± 0.07 nM | EC50 (human S1P2 receptors): > 10000 nM | EC50 (human S1P3 receptors): > 1000 nM | Emax (human S1P4 receptors): 90 ± 9% | Emax (human S1P5 receptors): ~100% | Internalization of S1P1 receptors ([1]; 10 nM, 2 experiments): 86 ± 4% | Internalization of S1P1 receptors ([1]; 100 nM, 2 experiments): 99 ± 3% | S1P1 receptors localized intracellularly ([1]; 1 µM, mean ± SD): 87 ± 0.5% | Internalization of S1P1 receptors ([1]; 1 µM, mean ± SD): 91 ± 4% | Surface expression of S1P1 receptors ([1]; incubated for up to 12 h without compound (data not shown)): remained low | Disease scores (AUC from days 12 to 34) versus vehicle ([2]; 0.03 mg·kg^−1 oral once daily): borderline effect | Disease scores (AUC from days 12 to 34) versus vehicle ([2]; 0.3 mg·kg^−1 oral once daily): significant reduction | Disease scores (AUC from days 12 to 34) versus vehicle ([2]; 3 mg·kg^−1 oral once daily): significant reduction | Difference in mean %Emax of ALC, BAF312 versus placebo ([3]; 0.3 mg once daily, 90% CI in parentheses): 32.8% | Difference in mean %Emax of ALC, BAF312 versus placebo ([3]; 1 mg once daily): 61.6% | Average time to reach the lower limit of the normal ALC range after stopping dosing at steady state ([3]; 1 mg): approximately 24 h | Difference in mean %Emax of ALC, BAF312 versus placebo ([3]; 2.5 mg once daily): 56.7% | Difference in mean %Emax of ALC, BAF312 versus placebo ([3]; 10 mg once daily): 74.6% | Average time to reach the lower limit of the normal ALC range after stopping dosing at steady state ([3]; 10 mg): ~123 h | Difference in mean %Emax of ALC, BAF312 versus placebo ([3]; 20 mg once daily): 76.1% | Time of maximal ALC reduction post dose ([3]; day 1, healthy subjects): 4 to 6 h | Study day by which ALC returned to the normal range ([3]; treatment stopped on day 28, dose groups 0.3–10 mg): ≤ 35 days | Effect on B and T cell counts ([4]; baseline to end of treatment): strong reduction in cell counts | Effect on monocyte counts ([4]; baseline to end of treatment): Little or no effect | Leukocyte subset cell counts after discontinuation ([4]; three weeks after discontinuation (data not shown)): returned to baseline levels | Decrease in mean heart rate Emax0-24 versus placebo (heart rate; 0.3 mg, 90% CI in brackets, not significant): −0.92 bpm | Decrease in mean heart rate Emax0-24 versus placebo (heart rate; 1 mg): −6.41 bpm | Decrease in mean heart rate Emax0-24 versus placebo (heart rate; 2.5 mg): −5.44 bpm | Mean heart rate reduction from time-matched day −1 (heart rate; 10 mg): approximately 24 ± 6 bpm | Decrease in mean heart rate Emax0-24 versus placebo (heart rate; 10 mg): −13.88 bpm | Mean heart rate reduction from time-matched day −1 (heart rate; 20 mg): ~29 ± 10 bpm | Subjects with asymptomatic second degree atrioventricular (AV) block (heart rate; active groups, each on day 1): three | Time of maximum decrease in mean ventricular heart rate post dose (heart rate; day 1, all (0.3–20 mg) doses): ~2 h | Subjects experiencing AEs (healthy subjects; 0.3 mg dose group): three | Subjects experiencing AEs (healthy subjects; 1 mg dose group): three | Subjects experiencing AEs (healthy subjects; 2.5 mg dose group): four | Subjects experiencing AEs (healthy subjects; 10 mg dose group): six | Subjects experiencing AEs (healthy subjects; 20 mg dose group): six | Macular oedema by ocular coherence tomography (healthy subjects; 0.3–20 mg once daily, 28 days): no signs of macular oedema | Tolerability (healthy subjects; 0.3–20 mg once daily, 28 days, healthy subjects): well tolerated | Elevations in alanine aminotransferase level (healthy subjects; by dose group): occurred most frequently in subjects in the BAF312 20 mg dose group | Pulmonary function tests versus placebo (healthy subjects; not related to dose and day (data not shown)): mild to moderate, statistically significant decreases | Visual acuity scores over treatment days (healthy subjects; regardless of the dose): no notable changes | Serious AEs (healthy subjects; whole trial): no serious AEs | half-life (clinical): 151 h | AUC0–24 h ([5]; Day 1, 0.3 mg·day^−1): 36.2 [10] h^*ng·mL^−1 | AUC0–24 h ([5]; Day 1, 1 mg·day^−1): 136 [8] h^*ng·mL^−1 | AUC0–24 h ([5]; Day 1, 2.5 mg·day^−1): 293 [85] h^*ng·mL^−1 | AUC0–24 h ([5]; Day 1, 10 mg·day^−1): 1370 [11] h^*ng·mL^−1 | AUC0–24 h ([5]; Day 1, 20 mg·day^−1): 2740 [14] h^*ng·mL^−1 | AUCτ ([5]; Day 28, 0.3 mg·day^−1): 97.9 [19] h^*ng·mL^−1 | AUCτ ([5]; Day 28, 1 mg·day^−1): 282 [16] h^*ng·mL^−1 | AUCτ ([5]; Day 28, 2.5 mg·day^−1): 692 [45] h^*ng·mL^−1 | AUCτ ([5]; Day 28, 10 mg·day^−1): 2580 [24] h^*ng·mL^−1 | Cmin,ss ([5]; Day 28, 20 mg·day^−1, arithmetic mean (SD)): 166 (88.0) ^D ng·mL^−1 | AUCτ ([5]; Day 28, 20 mg·day^−1): 6370 [23] h^*ng·mL^−1 | Cmax at 28 day ([5]; 0.3 mg·day^−1): 5.31 ng/mL | Tmax ([5]; 0.3 mg·day^−1): 3 h | Tmax at 28 day ([5]; 0.3 mg·day^−1): 3.5 h | concentration at 28 day ([5]; 0.3 mg·day^−1, Cavg, ss, Day 28, 0.3 mg·day^−1): 4.08 ng/mL | concentration at 28 day ([5]; 0.3 mg·day^−1, Cmin,ss, Day 28, 0.3 mg·day^−1): 2.83 ng/mL | half-life at 28 day ([5]; 0.3 mg·day^−1, Effective T1/2, Day 28, 0.3 mg·day^−1): 36.2 h | Cmax ([5]; 1 mg·day^−1): 8.01 ng/mL | Cmax at 28 day ([5]; 1 mg·day^−1): 14.9 ng/mL | Tmax ([5]; 1 mg·day^−1): 4.5 h | Tmax at 28 day ([5]; 1 mg·day^−1): 3 h | concentration at 28 day ([5]; 1 mg·day^−1, Cavg, ss, Day 28, 1 mg·day^−1): 11.7 ng/mL | concentration at 28 day ([5]; 1 mg·day^−1, Cmin,ss, Day 28, 1 mg·day^−1): 7.74 ng/mL | half-life at 28 day ([5]; 1 mg·day^−1, Effective T1/2, Day 28, 1 mg·day^−1): 25.2 h | Cmax ([5]; 2.5 mg·day^−1): 17.4 ng/mL | Cmax at 28 day ([5]; 2.5 mg·day^−1): 38.3 ng/mL | Tmax ([5]; 2.5 mg·day^−1): 3 h | Tmax at 28 day ([5]; 2.5 mg·day^−1): 4 h | concentration at 28 day ([5]; 2.5 mg·day^−1, Cavg, ss, Day 28, 2.5 mg·day^−1): 28.8 ng/mL | concentration at 28 day ([5]; 2.5 mg·day^−1, Cmin,ss, Day 28, 2.5 mg·day^−1): 15.2 ng/mL | Cmax ([5]; 10 mg·day^−1): 84.1 ng/mL | Cmax at 28 day ([5]; 10 mg·day^−1): 147 ng/mL | Tmax ([5]; 10 mg·day^−1): 3 h | Tmax at 28 day ([5]; 10 mg·day^−1): 3 h | concentration at 28 day ([5]; 10 mg·day^−1, Cavg, ss, Day 28, 10 mg·day^−1): 107 ng/mL | concentration at 28 day ([5]; 10 mg·day^−1, Cmin,ss, Day 28, 10 mg·day^−1): 70.6 ng/mL | half-life at 28 day ([5]; 10 mg·day^−1, Effective T1/2, Day 28, 10 mg·day^−1): 21.9 h | Cmax ([5]; 20 mg·day^−1): 162 ng/mL | Cmax at 28 day ([5]; 20 mg·day^−1): 359 ng/mL | Tmax ([5]; 20 mg·day^−1): 4 h | Tmax at 28 day ([5]; 20 mg·day^−1): 3 h | concentration at 28 day ([5]; 20 mg·day^−1, Cavg, ss, Day 28, 20 mg·day^−1): 265 ng/mL | half-life at 28 day ([5]; 20 mg·day^−1, Effective T1/2, Day 28, 20 mg·day^−1): 28.8 h | half-life ([5]; Effective elimination half-life based on drug accumulation at steady state, range over dose groups): 22 to 38 h | half-life ([5]; Effective elimination half-life, mean, mean over dose groups): 30 h | Dose proportionality of pharmacokinetics ([5]; dose range of 0.3 to 20 mg): increase proportionally with the dose | Time to steady-state concentrations ([5]; multiple once-daily administration): approximately 6 days

CCCCCCCCCCCCC/C=C/[C@@H](O)[C@@H](N)COP(=O)(O)O [S1P, sphingosine 1-phosphate, reference compound]
S1P1 receptors localized intracellularly ([1]; 1 µM, mean ± SD): 9 ± 9% | Internalization of S1P1 receptors ([1]; 1 µM, mean ± SD): 48 ± 12% | Potency in activating GIRK current relative to BAF312 [6]: approximately 8 times

CCC/N=C1\S/C(=C\c2ccc(OC[C@H](O)CO)c(Cl)c2)C(=O)N1c1ccccc1C [ponesimod]
Selectivity of S1P1 versus S1P3 (full agonist) (S1P1 receptors): 20 fold | Selectivity of S1P1 versus S1P5 (partial agonist) (S1P1 receptors): 10 fold
